Source: publication PMC6306559 (Pharmacology Research & Perspectives, 2018)
Like-named read-outs stand apart in the source and are kept apart here.

Assays:
[1] = test system: α1A‐AR expressing COS‐7 cells; format: cell-based, human; conditions: 10 μmol/L forskolin; for Modulation of forskolin CRE response by PDE inhibitor: IBMX 500 μmol/L, rolipram 10 μmol/L
[2] = test system: α1A‐AR expressing COS‐7 cells; experiment: Phenylephrine-induced CRE reporter assay; format: cell-based; conditions: for Effect of inhibitor on diazepam modulation of phenylephrine‐stimulated CRE response / Cotreatment with diazepam, effect on phenylephrine CRE response / Modulation of phenylephrine CRE response by PDE inhibitor: 0.1 μmol/L phenylephrine; for Modulation of phenylephrine CRE response by PDE inhibitor: IBMX 500 μmol/L, rolipram 10 μmol/L
Protocol: (§1) cAMP response element (CRE) response assays were performed as previously described by transfecting WT α1A‐ and α1B‐AR stably expressing COS‐7 cells, parental COS‐7 cells or parental HEK293T cells, with a β‐galactosidase expression plasmid under the control of the CRE promoter.10 CRE reporter‐transfected cells were seeded into 96‐well culture plates for 24 hours before treatment with various compounds for 6 hours at 37°C 5% CO2. Media was aspirated, and the cells frozen at −80°C for at least 24 hours before measurement of cellular β‐galactosidase expression using chlorophenol red‐β‐D‐galactopyranoside. Ligands were made up in 0.5% FBS DMEM media. […] HEK293T cells transiently transfected with GPR68 and pCRE were stimulated with sodium bicarbonate‐free, low glucose DMEM, supplemented with 20 mmol/L HEPES and 0.5% FBS at pH 6.8, 7.0, 7.2, 7.4, and 7.8. The pH was adjusted at 37°C with NaOH. Cells were incubated for 6 hours at 37°C, in a room atmosphere incubator.
Nuclear magnetic resonance (NMR) data were processed in Topspin 3.5 using squared cosine‐bells in both dimensions and zero‐filled once, prior to Fourier‐transformation. All other data was analyzed with Graphpad prism 7 (San Diego, CA, USA). All error bars are standard deviation (SD) from three independent experiments. Competition binding assays were performed in duplicate wells. Curves were fit with one site nonlinear regression. For whole cell QAPB binding, the mean QAPB fluorescence intensity (MFI) of at lease 5000 cells was measured, and plotted against QAPB concentration. Values reported represent the mean and SD of at least three K d values calculated from separate measurements. Ca^2+ mobilization data were performed in triplicate wells and normalized to the peak response elicited by 3 μmol/L ionomycin. CRE assay was conducted in triplicate, and data were normalized to the response elicited by the vehicle. Curves were fitted with three variable nonlinear regressions. For GPR68 assays, responses were normalized to CRE response at pH 6.8 (100%) and pH 7.8 (0%).

guinea pig PDE‐4 = conditions: cited from earlier work; for Potency relative to diazepam: benzodiazepines unsubstituted at N‐1
WT α1B‐AR [3] = target: T1, WT α1B‐AR (Homo sapiens, UniProt P35368); experiment: Intracellular Ca2+ mobilization in stably expressing COS‐7 cells; format: cell-based; conditions: for Effect on Ca2+ mobilization: 0 to 50 μmol/L, absence or presence of 10 nmol/L phenylephrine
T1 construct: COS‐7 cells stably expressing unmodified α1B‐AR; expressed in transfected cells
T1 sequence (P35368 1-520): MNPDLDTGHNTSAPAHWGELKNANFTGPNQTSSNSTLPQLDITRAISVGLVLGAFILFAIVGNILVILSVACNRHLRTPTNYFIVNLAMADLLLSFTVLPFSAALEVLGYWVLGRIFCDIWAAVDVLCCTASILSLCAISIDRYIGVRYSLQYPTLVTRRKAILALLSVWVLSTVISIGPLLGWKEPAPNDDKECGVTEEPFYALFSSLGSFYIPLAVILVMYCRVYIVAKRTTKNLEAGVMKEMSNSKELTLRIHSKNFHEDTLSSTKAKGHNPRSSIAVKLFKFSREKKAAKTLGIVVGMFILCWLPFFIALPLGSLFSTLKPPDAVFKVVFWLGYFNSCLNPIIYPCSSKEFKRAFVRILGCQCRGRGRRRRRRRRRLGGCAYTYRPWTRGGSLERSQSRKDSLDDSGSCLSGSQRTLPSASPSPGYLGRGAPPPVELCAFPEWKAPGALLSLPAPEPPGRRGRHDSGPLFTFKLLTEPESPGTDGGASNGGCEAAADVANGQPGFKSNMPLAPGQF

α1B‐AR #15 [4] = experiment: QAPB competition binding at purified thermostabilized receptor on paramagnetic beads; conditions: for QAPB displacement: 10 nmol/L QAPB, 2 hours, benzodiazepines up to 200 μmol/L
α1A‐AR A4 [5] = conditions: 500 μmol/L ligand, 5 μmol/L receptor in DDM, with and without 10 μmol/L prazosin; controls DDM alone and enNTS1
α1A‐AR A4 [6] = conditions: for QAPB displacement: 10 nmol/L QAPB, 2 hours, benzodiazepines up to 200 μmol/L
GPR68 = target: T2, GPR68 (Homo sapiens, UniProt Q15743); experiment: GPR68 pH-stimulated CRE reporter assay; format: cell-based; conditions: pH 7.2; HEK293T cells transfected with GPR68
T2 construct: expressed in transfected cells; host or cells: HEK293T (transient)
Protocol: as §1, with “Cells were incubated for 6 hours at 37°C, in a room atmosphere incubator.” left out
Nuclear magnetic resonance (NMR) data were processed in Topspin 3.5 using squared cosine‐bells in both dimensions and zero‐filled once, prior to Fourier‐transformation. All other data was analyzed with Graphpad prism 7 (San Diego, CA, USA). […] For whole cell QAPB binding, the mean QAPB fluorescence intensity (MFI) of at lease 5000 cells was measured, and plotted against QAPB concentration. Values reported represent the mean and SD of at least three K d values calculated from separate measurements. […]

WT α1A‐AR = target: T3, WT α1A‐AR (Homo sapiens, UniProt P35348); experiment: Intracellular Ca2+ mobilization in stably expressing COS‐7 cells; format: cell-based; conditions: for Effect on Ca2+ mobilization: 0 to 50 μmol/L, absence or presence of 10 nmol/L phenylephrine
T3 construct: expressed in transfected cells
T3 sequence (P35348 1-466): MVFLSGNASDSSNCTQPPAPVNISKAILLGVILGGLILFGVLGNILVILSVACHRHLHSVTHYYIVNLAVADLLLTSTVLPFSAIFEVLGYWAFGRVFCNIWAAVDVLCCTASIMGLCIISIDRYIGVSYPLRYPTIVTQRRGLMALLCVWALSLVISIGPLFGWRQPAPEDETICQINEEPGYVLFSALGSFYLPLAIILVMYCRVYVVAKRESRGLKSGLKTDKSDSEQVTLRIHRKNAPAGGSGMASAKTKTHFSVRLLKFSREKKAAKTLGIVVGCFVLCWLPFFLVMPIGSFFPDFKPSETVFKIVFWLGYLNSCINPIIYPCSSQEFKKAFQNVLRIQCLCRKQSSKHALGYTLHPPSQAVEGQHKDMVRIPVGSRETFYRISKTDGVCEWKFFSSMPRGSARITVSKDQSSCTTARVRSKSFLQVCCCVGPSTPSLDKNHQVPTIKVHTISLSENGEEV

α1B‐AR #15 [7] = conditions: previously reported; read-out: K d of QAPB; cited from earlier work
α1A‐AR A4 [8] = conditions: previously reported; read-out: K d of QAPB; cited from earlier work
WT α1B‐AR [9] = target: T1, WT α1B‐AR; experiment: Whole cell QAPB saturation binding by flow cytometry; conditions: COS‐7 cells, read-out: K d of QAPB
Protocol: Fifty microliter of the cell suspension was added to each well of a V‐bottom 96‐well plate (Sarstead, Nümbrecht, Germany). […] To determine nonspecific binding, cells were exposed to QAPB at the same concentrations as above, but in the presence of 100 μmol/L phentolamine. The cells were incubated with ligands for 1 hour at 20°C prior to detection of bound QAPB with flow cytometry using CytoFLEX LX flow cytometer (Beckman Coulter, Brea, CA, USA).

[10] = test system: α1B‐AR expressing COS‐7 cells; experiment: Phenylephrine-induced CRE reporter assay; format: cell-based
[11] = test system: untransfected human embryonic kidney 293T cells; experiment: Forskolin-induced CRE reporter assay; format: cell-based; conditions: 50 μmol/L diazepam
[12] = test system: untransfected COS‐7 cells; experiment: Phenylephrine-induced CRE reporter assay; format: cell-based; conditions: 50 μmol/L diazepam; cells do not express α1A‐AR and α1B‐AR
Protocol: as §1

[13] = test system: purified guinea pig PDE‐4; conditions: cited from earlier work
[14] = test system: untransfected HEK293T cells; experiment: Isoprenaline-induced CRE reporter assay; format: cell-based, human; conditions: 50 μmol/L diazepam
[15] = not in untransfected COS‐7 cells
[16] = 2.5 mmol/L phenylephrine, increasing diazepam

T2 sequence (Q15743 whole entry, species assumed): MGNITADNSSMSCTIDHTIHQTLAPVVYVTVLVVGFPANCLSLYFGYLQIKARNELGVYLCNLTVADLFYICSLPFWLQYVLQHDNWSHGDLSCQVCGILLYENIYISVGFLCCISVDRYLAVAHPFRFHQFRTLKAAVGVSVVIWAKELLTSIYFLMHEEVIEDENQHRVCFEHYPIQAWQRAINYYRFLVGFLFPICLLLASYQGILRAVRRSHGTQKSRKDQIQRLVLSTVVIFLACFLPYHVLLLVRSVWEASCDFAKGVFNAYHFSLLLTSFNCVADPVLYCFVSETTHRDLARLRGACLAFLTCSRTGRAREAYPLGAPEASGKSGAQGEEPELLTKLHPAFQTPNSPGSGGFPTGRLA

## NCCOB(c1ccccc1)c1ccccc1 [2‐APB]
[1]; 50 μmol/L diazepam
  Effect of inhibitor on diazepam modulation of forskolin‐stimulated CRE response: had no significant effect
[2]; 50 μmol/L diazepam
  Effect of inhibitor on diazepam modulation of phenylephrine‐stimulated CRE response: had no significant effect

## CC(C)Cn1c(=O)n(C)c(=O)c2[nH]cnc21 [IBMX]
[1]; 50 μmol/L diazepam
  Cotreatment with diazepam, effect on forskolin CRE response: no additive effect was observed
[1]
  Modulation of forskolin CRE response by PDE inhibitor: positively modulated the CRE response of forskolin
[2]; 50 μmol/L diazepam
  Cotreatment with diazepam, effect on phenylephrine CRE response: had no additional positive modulatory effect
[2]
  Modulation of phenylephrine CRE response by PDE inhibitor: positively modulated the CRE response of phenylephrine to a similar level as diazepam

## COC(=O)C1=C(C)NC(C)=C(C(=O)OC2CCCN(Cc3ccccc3)C2)C1c1cccc([N+](=O)[O-])c1 (stereo not shown) [benidipine]
[1]; 50 μmol/L diazepam
  Effect of inhibitor on diazepam modulation of forskolin‐stimulated CRE response: had no effect
[2]; 50 μmol/L diazepam
  Effect of inhibitor on diazepam modulation of phenylephrine‐stimulated CRE response: significantly reduced both the phenylephrine response and the diazepam modulation of the CRE response

## O=C1CN=C(c2ccccc2Cl)c2cc([N+](=O)[O-])ccc2N1 [clonazepam]
Guinea pig PDE‐4
  Potency relative to diazepam: less potent than diazepam

## COC(=O)C1=C(C)NC(C)=C([N+](=O)[O-])[C@@H]1c1ccccc1C(F)(F)F [(R)‐(+)‐Bay K 8644]
[1]; 50 μmol/L diazepam
  Effect of inhibitor on diazepam modulation of forskolin‐stimulated CRE response: had no significant effect
[2]; 50 μmol/L diazepam
  Effect of inhibitor on diazepam modulation of phenylephrine‐stimulated CRE response: had no significant effect

## O=C1Nc2ccc(Cl)cc2C(c2ccccc2Cl)=NC1O (stereo not shown) [lorazepam]
WT α1B‐AR [3]
  Effect on Ca2+ mobilization: had no effect
α1B‐AR #15 [4]
  QAPB displacement: neither diazepam nor lorazepam displaced QAPB at either receptor
α1A‐AR A4 [5]
  STD NMR signals, interpretation: nonspecific interactions with detergent micelles
α1A‐AR A4 [6]
  QAPB displacement: neither diazepam nor lorazepam displaced QAPB at either receptor
Guinea pig PDE‐4
  Potency relative to diazepam: less potent than diazepam
GPR68
  Modulation of GPR68 CRE response: positively modulated the CRE response
WT α1A‐AR
  Effect on Ca2+ mobilization: had no effect

## CN1CCc2cc3c(cc2[C@H]1[C@@H]1OC(=O)c2c1ccc1c2OCO1)OCO3 [bicuculline]
[1]; 50 μmol/L diazepam
  Effect of inhibitor on diazepam modulation of forskolin‐stimulated CRE response: had no effect
[2]; 50 μmol/L diazepam
  Effect of inhibitor on diazepam modulation of phenylephrine‐stimulated CRE response: had no effect

## CNC[C@H](O)c1cccc(O)c1 [phenylephrine]
WT α1B‐AR [3]; [15]
  Agonist stimulation of calcium mobilization: stimulated calcium mobilization
α1B‐AR #15 [4]
  QAPB displacement: displaced QAPB at both receptor subtypes
α1A‐AR A4 [6]
  QAPB displacement: displaced QAPB at both receptor subtypes
WT α1A‐AR; [15]
  Agonist stimulation of calcium mobilization: stimulated calcium mobilization

## quinazoline piperazine bodipy [QAPB]
α1B‐AR #15 [7]
  Kd: 8.5 nM
α1A‐AR A4 [8]
  Kd: 11.6 nM
WT α1B‐AR [9]; absence of diazepam
  Kd: 12 ± 3 nM
WT α1B‐AR [9]; presence of 50 μmol/L diazepam
  Kd: 20 ± 13 nM

## COc1ccc(C2CNC(=O)C2)cc1OC1CCCC1 (stereo not shown) [rolipram]
[1]; 50 μmol/L diazepam
  Cotreatment with diazepam versus rolipram alone, forskolin CRE response: significantly decreased
  Cotreatment with diazepam, effect on forskolin CRE response: no additive effect was observed
[1]
  Modulation of forskolin CRE response by PDE inhibitor: positively modulated the CRE response of forskolin
[2]; 50 μmol/L diazepam
  Cotreatment with diazepam, effect on phenylephrine CRE response: had no additional positive modulatory effect
[2]
  Modulation of phenylephrine CRE response by PDE inhibitor: positively modulated the CRE response of phenylephrine to a similar level as diazepam

## Cl.NCCCCCCNS(=O)(=O)c1cccc2c(Cl)cccc12 [W‐7 hydrochloride]
[1]; 50 μmol/L diazepam
  Effect of inhibitor on diazepam modulation of forskolin‐stimulated CRE response: had no significant effect on forskolin stimulation
[2]; 50 μmol/L diazepam
  Effect of inhibitor on diazepam modulation of phenylephrine‐stimulated CRE response: significantly reduced both the phenylephrine response and the diazepam modulation of the CRE response

## CN1C(=O)CN=C(c2ccccc2)c2cc(Cl)ccc21 [diazepam]
WT α1B‐AR [3]
  Effect on Ca2+ mobilization: had no effect
α1B‐AR #15 [4]
  QAPB displacement: neither diazepam nor lorazepam displaced QAPB at either receptor
α1B‐AR #15 [4]; [16]
  Cooperativity with phenylephrine in QAPB displacement: No cooperativity between diazepam and phenylephrine was observed
[10]; COS-7, 800 nmol/L phenylephrine, mean ± SD from three experiments, read-out: EC50 for modulating the phenylephrine CRE response
  EC50: 7800 ± 1900 nM
[10]; diazepam alone
  CRE response in the absence of phenylephrine: did not induce a CRE response
[11]
  Modulation of forskolin potency in CRE assay: positively modulated the potency
[12]
  Modulation of phenylephrine‐induced CRE response: positively modulated
α1A‐AR A4 [6]
  QAPB displacement: neither diazepam nor lorazepam displaced QAPB at either receptor
α1A‐AR A4 [6]; [16]
  Cooperativity with phenylephrine in QAPB displacement: No cooperativity between diazepam and phenylephrine was observed
Guinea pig PDE‐4
  IC50: 9000 nM
GPR68
  Modulation of GPR68 CRE response: did not significantly increase the CRE response of GPR68
[13]
  Competition with 3H‐rolipram: competes with ^3H‐rolipram
[2]; 50 μmol/L diazepam
  Modulation of phenylephrine potency in CRE assay: positively modulated the potency of phenylephrine
[2]; COS-7, 200 nmol/L phenylephrine, mean ± SD from three experiments, read-out: EC50 for modulating the phenylephrine CRE response
  EC50: 6500 ± 4800 nM
[2]; diazepam alone
  CRE response in the absence of phenylephrine: did not induce a CRE response
[14]
  Modulation of isoprenaline CRE efficacy: significantly increased the CRE efficacy of isoprenaline
WT α1A‐AR
  Effect on Ca2+ mobilization: had no effect

## COc1ccc(S(=O)(=O)N(CCO)c2ccccc2CN(C)C/C=C/c2ccc(Cl)cc2)cc1 [KN‐93]
[1]; 50 μmol/L diazepam
  Effect of inhibitor on diazepam modulation of forskolin‐stimulated CRE response: had no significant effect
[2]; 50 μmol/L diazepam
  Effect of inhibitor on diazepam modulation of phenylephrine‐stimulated CRE response: had no significant effect

## O=C1CN=C(c2ccccc2)c2cc([N+](=O)[O-])ccc2N1 [nitrazepam]
Guinea pig PDE‐4
  Potency relative to diazepam: less potent than diazepam
